In ChEMBL document CHEMBL5120907, “Triculamin: An Unusual Lasso Peptide with Potent Antimycobacterial Activity” (J Nat Prod, 2022):
Values after ≈ are worked out from the molar mass of the structure shown. Where a SMILES comes first, the peptide text is derived from it. Bridges are numbered along the chain shown (N, C = ends).

How the values were obtained:
Enterobacter cloacae [1] = test: Antibacterial activity against Enterobacter cloacae DSM 30054 assessed as reduction in bacterial growth measured after 3 days by broth microdilution method; type: functional; details: DSM 30054, 72 h, time 3 day
Mycolicibacterium phlei [2] = test: Bactericidal activity against Mycobacterium phlei DSM 43239 assessed as reduction in colony count and measured after 3 days by agar diffusion assay; type: functional; details: DSM 43239, 72 h, time 3 day
Enterococcus faecium [3] = test: Antibacterial activity against Enterococcus faecium DSM 20477 assessed as reduction in bacterial growth measured after 3 days by broth microdilution method; type: functional; details: DSM 20477, 72 h, time 3 day
Pseudomonas aeruginosa [4] = test: Antibacterial activity against Pseudomonas aeruginosa DSM 19880 assessed as reduction in bacterial growth measured after 3 days by broth microdilution method; type: functional; details: DSM 19880, 72 h, time 3 day
Mycolicibacterium phlei [5] = test: Antibacterial activity against Mycobacterium phlei DSM 43239 assessed as reduction in bacterial growth measured after 3 days by broth microdilution method; type: functional; details: DSM 43239, 72 h, time 3 day
Enterococcus faecium [6] = test: Bactericidal activity against Enterococcus faecium DSM 20477 assessed as reduction in colony count and measured after 3 days by agar diffusion assay; type: functional; details: DSM 20477, 72 h, time 3 day
Staphylococcus aureus [7] = test: Antibacterial activity against Staphylococcus aureus DSM 20231 assessed as reduction in bacterial growth measured after 3 days by broth microdilution method; type: functional; details: DSM 20231, 72 h, time 3 day
Acinetobacter baumannii [8] = test: Antibacterial activity against Acinetobacter baumannii […] assessed as reduction in bacterial growth measured after 3 days by broth microdilution method; type: functional; details: 72 h, time 3 day
Klebsiella oxytoca [9] = test: Antibacterial activity against Klebsiella oxytoca DSM 5175 assessed as reduction in bacterial growth measured after 3 days by broth microdilution method; type: functional; details: DSM 5175, 72 h, time 3 day
Pseudomonas aeruginosa [10] = test: Bactericidal activity against Pseudomonas aeruginosa DSM 19880 assessed as reduction in colony count and measured after 3 days by agar diffusion assay; type: functional; details: DSM 19880, 72 h, time 3 day
[11] = tested on: Mycolicibacterium smegmatis; test: Antibacterial activity against Mycobacterium smegmatis DSM 43080 assessed as reduction in bacterial growth measured after 3 days by broth microdilution method; type: functional; details: DSM 43080, 72 h, time 3 day
Bacillus cereus [12] = test: Antibacterial activity against Bacillus cereus DSM 31 assessed as reduction in bacterial growth measured after 3 days by broth microdilution method; type: functional; details: DSM 31, 72 h, time 3 day
[13] = tested on: Mycolicibacterium smegmatis; test: Bactericidal activity against Mycobacterium smegmatis DSM 43080 assessed as reduction in colony count and measured after 3 days by agar diffusion assay; type: functional; details: DSM 43080, 72 h, time 3 day
Staphylococcus aureus [14] = test: Bactericidal activity against Staphylococcus aureus DSM 20231 assessed as reduction in colony count and measured after 3 days by agar diffusion assay; type: functional; details: DSM 20231, 72 h, time 3 day
Acinetobacter baumannii [15] = test: Bactericidal activity against Acinetobacter baumannii […] assessed as reduction in colony count and measured after 3 days by agar diffusion assay; type: functional; details: 72 h, time 3 day
[16] = Stability of the compound assessed as carboxypeptidase Y mediated compound digestion pretreated at 95 degreeC for 4 hrs followed by protease addition incubated for 4 hrs by HPLC analysis; type: ADME
Klebsiella oxytoca [17] = test: Bactericidal activity against Klebsiella oxytoca DSM 5175 assessed as reduction in colony count and measured after 3 days by agar diffusion assay; type: functional; details: DSM 5175, 72 h, time 3 day
Enterobacter cloacae [18] = test: Bactericidal activity against Enterobacter cloacae DSM 30054 assessed as reduction in colony count and measured after 3 days by agar diffusion assay; type: functional; details: DSM 30054, 72 h, time 3 day
Bacillus cereus [19] = test: Bactericidal activity against Bacillus cereus DSM 31 assessed as reduction in colony count and measured after 3 days by agar diffusion assay; type: functional; details: DSM 31, 72 h, time 3 day
[20] = tested on: Mycolicibacterium smegmatis; test: Antimycobacterial activity against Mycobacterium smegmatis DSM 43080 assessed as reduction in bacterial growth at late-exponential phase at 10 times of MIC measured up to 48 hrs by time killing assay; type: functional, organism-based; details: TDE = time-dependent effect
[21] = Thermal stability of compound in water incubated at 95 degreeC for 4 hrs by HPLC analysis; type: physicochemical; details: buffer
[22] = Thermal stability of compound in water assessed as antibacterial activity against Mycobacterium smegmatis DSM 43080 by measuring zone of inhibition incubated up to 8 hrs at 95 degreeC by agar diffusion assay; type: physicochemical; details: buffer
[23] = tested on: Mycolicibacterium smegmatis; test: Antimycobacterial activity against Mycobacterium smegmatis DSM 43080 assessed as reduction in bacterial growth at mid-exponential phase at 10 times of MIC and measured up to 24 hrs by time killing assay; type: functional, organism-based; details: TDE = time-dependent effect
[24] = Stability of the compound assessed as carboxypeptidase Y mediated compound digestion by measuring Mycobacterium smegmatis DSM 43080 zone of inhibition incubated for 4 hrs by agar diffusion assay; type: ADME

SMILES	MIC (Enterobacter cloacae [1]) [µg/mL]	MBC (Mycolicibacterium phlei [2]) [µg/mL]	MIC (Enterococcus faecium [3]) [µg/mL]	MIC (Pseudomonas aeruginosa [4]) [µg/mL]	MIC (Mycolicibacterium phlei [5]) [µg/mL]	MBC (Enterococcus faecium [6]) [µg/mL]	MIC (Staphylococcus aureus [7]) [µg/mL]	MIC (Acinetobacter baumannii [8]) [µg/mL]	MIC (Klebsiella oxytoca [9]) [µg/mL]	MBC (Pseudomonas aeruginosa [10]) [µg/mL]	MIC [11] [µg/mL]	MIC (Bacillus cereus [12]) [µg/mL]	MBC [13] [µg/mL]	further results
NC[C@H]1O[C@H](O[C@H]2[C@H](O)[C@@H](O[C@H]3O[C@H](CO)[C@@H](O)[C@H](N)[C@H]3O)[C@H](N)C[C@@H]2N)[C@H](O)[C@@H](O)[C@@H]1O [KANAMYCIN]	2 (≈ 4.13 µM)	1 (≈ 2.06 µM)	> 32	> 32	1 (≈ 2.06 µM)	> 32	2 (≈ 4.13 µM)	2 (≈ 4.13 µM)	2 (≈ 4.13 µM)	> 32	0.5 (≈ 1.03 µM)	8 (≈ 16.5 µM)	0.5 (≈ 1.03 µM)	
CC[C@H](C)[C@H](NC(=O)CNC(=O)[C@@H]1CC(=O)N[C@@H](CO)C(=O)N[C@@H](CCCCN)C(=O)N[C@@H](CCCCN)C(=O)N[C@@H](CO)C(=O)N[C@@H](CCCCN)C(=O)N2CCC[C@H]2C(=O)NCC(=O)N1)C(=O)N[C@@H](CCCNC(=N)N)C(=O)NCC(=O)N[C@@H](CCCCN)C(=O)NCC(=O)N[C@H](C(=O)N[C@@H](CCCNC(=N)N)C(=O)NCC(=O)O)C(C)C (SKKSKPGDGIRGKGVRG-OH; lactam N-8)	> 32	> 0.125	> 32	> 32	0.03 (≈ 0.0176 µM)	> 32	> 32	> 32	> 32	> 32	0.125 (≈ 0.0731 µM)	> 32	0.5 (≈ 0.293 µM)	MBC (Staphylococcus aureus [14]): > 32 µg/mL; MBC (Acinetobacter baumannii [15]): > 32 µg/mL; Stability [16]: Stable; MBC (Klebsiella oxytoca [17]): > 32 µg/mL; MBC (Enterobacter cloacae [18]): > 32 µg/mL; MBC (Bacillus cereus [19]): > 32 µg/mL; Activity [20]: Tde; Stability [21]: Stable; Stability [22]: Stable; Activity [23]: Tde; Stability [24]: Stable
CO[C@H]1/C=C/O[C@@]2(C)Oc3c(C)c(O)c4c(O)c(c(/C=N/N5CCN(C)CC5)c(O)c4c3C2=O)NC(=O)/C(C)=C\C=C\[C@H](C)[C@H](O)[C@@H](C)[C@@H](O)[C@@H](C)[C@H](OC(C)=O)[C@@H]1C [RIFAMPIN]	16 (≈ 19.4 µM)	0.06 (≈ 0.0729 µM)	8 (≈ 9.72 µM)	> 32	0.03 (≈ 0.0365 µM)		0.004 (≈ 0.00486 µM)	1 (≈ 1.22 µM)	4 (≈ 4.86 µM)	> 32	8 (≈ 9.72 µM)	0.25 (≈ 0.304 µM)	8 (≈ 9.72 µM)	
